Where only a bound is given, the exact number is not on record here.

The target in the assay is T1, GPR119 receptor (UniProt Q8TDV5, S309L, species not given).
T1 sequence (Q8TDV5 1-335 S309L): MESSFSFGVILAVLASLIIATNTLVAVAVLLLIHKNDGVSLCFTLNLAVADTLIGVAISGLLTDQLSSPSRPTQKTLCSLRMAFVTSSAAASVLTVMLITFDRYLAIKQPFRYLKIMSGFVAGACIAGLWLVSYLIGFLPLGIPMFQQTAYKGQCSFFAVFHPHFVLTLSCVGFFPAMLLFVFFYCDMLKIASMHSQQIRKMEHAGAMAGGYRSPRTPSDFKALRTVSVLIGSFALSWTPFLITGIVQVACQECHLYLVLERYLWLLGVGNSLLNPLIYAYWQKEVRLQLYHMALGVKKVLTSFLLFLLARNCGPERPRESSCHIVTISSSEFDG
The experiment in a line: GPR119 signaling, cyclic AMP (cAMP) homogenous time resolved fluorescence (HTRF) assay. The note with it: CHO cells with Gα15 and murine GPR119, or HEK293 Flp-In cells with human GPR119 S309L; table does not say which; read-out: Activity: inflection points, denoted as EC50 values (agonist activation of GPR119, cAMP). Type of assay: cell-based. The source says: Measurement of GPR119 Signaling Using a Cyclic AMP (cAMP) Homogenous Time Resolved Fluorescence (HTRF) Assay
Chinese hamster ovary (CHO) cell lines stably transfected with the permissive guanine nucleotide binding protein alpha 15 (Gα15) and […] GPR119 were maintained in DMEM media containing FBS, penicillin-streptomycin, puromycin, and G418 (geneticin). Alternatively, human embryonic kidney (HEK)293 Flp-In cells (Invitrogen, Carlsbad, Calif.) were stably transfected with a human SNP variant (S309L) of GPR119 and maintained in DMEM media containing FBS, penicillin-streptomycin, and hygromycin. Agonist activation of the GPR119 receptor was measured in receptor transfected cells described above, treated with compounds of this invention, using a commercial homogenous time resolved fluorescence (HTRF) kit for measurement of cAMP (CisBio, Bedford, Mass.). The assay was performed in 96-well half-volume plates (murine) or 384-well plates (human) following the manufacturers instructions. Briefly, suspended cells were incubated with a dose titration of test compound at room temperature for 60 min, lysed, and incubated with HTRF reagents for an additional 60 min. The plate was read using an Envision multilabel reader (Perkin Elmer) adjusted to read time resolved fluorescence and the cAMP concentrations were extrapolated from a cAMP calibration curve. […] The concentration of test compound required to stimulate a half-maximal response (EC50), and efficacy as compared to an internal agonist control, was determined from a sigmoidal 4-parameter curve fit of the resulting plot of normalized activity versus compound concentration.
With `Cc1nnc(-c2ccc(OCCC3CC3C3CCN(c4ncc(F)cn4)CC3)cc2F)o1` (single isomer, unassigned) [Ex 83eF, cis-5-fluoro-2-[4-(2-{2-[3-fluoro-4-(5-methyl-1,3,4-oxadiazol-2-yl)phenoxy]ethyl}cyclopropyl)piperidin-1-yl]pyrimidine], the concentration for a half-maximal effect (EC50) fell in the range of 50 to 200 nM.

Take `O=C(NC1CC1)c1ccc(OC[C@@H]2C[C@H]2CC2CCN(c3ncc(Cl)cn3)CC2)cc1F` [Ex 107, 4-[((1R,2R)-2-{[1-(5-chloropyrimidin-2-yl)piperidin-4-yl]methyl}cyclopropyl)methoxy]-N-cyclopropyl-2-fluorobenzamide]: the EC50 was in the range of 10 to 50 nM.

Consider `N#Cc1ccc(OCC[C@@H]2C[C@@H]2C2CCN(c3ncc(Cl)cn3)CC2)cn1` (racemic) [Ex 54, Rac-cis-5-(2-{2-[1-(5-chloropyrimidin-2-yl)piperidin-4-yl]cyclopropyl}ethoxy)pyridine-2-carbonitrile], for which the EC50 is 50 to 200 nM.

`CS(=O)(=O)c1ccc(OCCC2CC2C2CCN(c3ncc(Cl)cn3)CC2)cc1` (racemic) [Ex 6, rac cis-5-chloro-2-[4-(2-{2-[4-(methylsulfonyl)phenoxy]ethyl}cyclopropyl)piperidin-1-yl]pyrimidine]: the EC50 is under 10 nM.

As to `CS(=O)(=O)c1ccc(OC[C@@H]2C[C@H]2CC2CCN(c3ncc(Cl)cn3)CC2)cc1` (racemic) [Ex 101, rac-trans-5-chloro-2-{4-[(2-{[4-(methylsulfonyl)phenoxy]methyl}cyclopropyl)methyl]piperidin-1-yl}pyrimidine], the EC50 was in the range of 50 to 200 nM.

Turning to `CS(=O)(=O)c1ccc(OCC[C@H]2C[C@@H]2C2CCN(c3ncc(Cl)cn3)CC2)cc1` [Ex 91, 5-chloro-2-[4-((1R,2R)-2-{2-[4-(methylsulfonyl)phenoxy]ethyl}cyclopropyl)piperidin-1-yl]pyrimidine], the EC50 fell in the range of 10 to 50 nM.

`Cc1cnc(N2CCC(C3CC3CCOc3ccc(-n4ccnn4)cc3)CC2)nc1` (racemic) [Ex 27c, rac cis-5-methyl-2-[4-(2-{2-[4-(1H-1,2,3-triazol-1-yl)phenoxy]ethyl}cyclopropyl)piperidin-1-yl]pyrimidine]: the half-maximal effective concentration (EC50) lay in the range of 10 to 50 nM.

`O=C(NC1CC1)c1ccc(OC[C@H]2C[C@@H]2CC2CCN(c3ncc(Cl)cn3)CC2)cc1F` [Ex 108, 4-[((1S,2S)-2-{[1-(5-chloropyrimidin-2-yl)piperidin-4-yl]methyl}cyclopropyl)methoxy]-N-cyclopropyl-2-fluorobenzamide]: the half-maximal effective concentration (EC50) lay in the range of 10 to 50 nM.

Take `Clc1cnc(N2CCC(C3CC3CCOc3ccc(-c4cnn[nH]4)cc3)CC2)nc1` (racemic) [Ex 29, rac cis-5-chloro-2-[4-(2-{2-[4-(1H-1,2,3-triazol-5-yl)phenoxy]ethyl}cyclopropyl)piperidin-1-yl]pyrimidine]: the concentration giving a half-maximal response (EC50) is over 200 nM.

As to `Cc1nnc(-c2ccc(OCC[C@H]3C[C@H]3C3CCN(c4ncc(F)cn4)CC3)cc2F)o1` (racemic) [Ex 86, Rac-cis-5-fluoro-2-[4-(2-{2-[3-fluoro-4-(5-methyl-1,3,4-oxadiazol-2-yl)phenoxy]ethyl}cyclopropyl)piperidin-1-yl]pyrimidine], the half-maximal effective concentration (EC50) was under 10 nM.

On to `CS(=O)(=O)c1ccc(OCC[C@H]2C[C@H]2C2CCN(c3ncc(Cl)cn3)CC2)nc1` (racemic) [Ex 6a, rac-cis 5-chloro-2-{-4-[2-(2-{[5-(methylsulfonyl)pyridin-2-yl]oxy}ethyl)cyclopropyl]piperidin-1-yl}pyrimidine], for which the concentration for a half-maximal effect (EC50) was under 10 nM.

Consider `Cc1cc(OC[C@@H]2C[C@@H]2CC2CCN(c3ncc(Cl)cn3)CC2)nc(C#N)n1` (racemic) [Ex 118, rac-cis-4-[(2-{[1-(5-chloropyrimidin-2-yl)piperidin-4-yl]methyl}cyclopropyl)methoxy]-6-methylpyrimidine-2-carbonitrile], for which the EC50 fell in the range of 10 to 50 nM.

On to `Fc1cnc(N2CCC(C3CC3CCOc3ccc(-n4ccnn4)cc3)CC2)nc1` (single isomer, unassigned) [Ex 83bF, cis-5-fluoro-2-[4-(2-{2-[4-(1H-1,2,3-triazol-1-yl)phenoxy]ethyl}cyclopropyl)piperidin-1-yl]pyrimidine], for which the EC50 was in the range of 50 to 200 nM.

For the compound `Clc1cnc(N2CCC(C3CC3CCOc3cccc(-n4cncn4)c3)CC2)nc1` (racemic) [Ex 9, rac cis-5-chloro-2-[4-(2-{2-[3-(1H-1,2,4-triazol-1-yl)phenoxy]ethyl}cyclopropyl)piperidin-1-yl]pyrimidine], the half-maximal effective concentration (EC50) lay in the range of 50 to 200 nM.

As to `Cc1nc(C#N)cc(OCCC2CC2C2CCN(c3ncc(Cl)cn3)CC2)n1` (single isomer, unassigned) [Ex 34, Chiral-cis-6-(2-{2-[1-(5-chloropyrimidin-2-yl)piperidin-4-yl]cyclopropyl}ethoxy)-2-methylpyrimidine-4-carbonitrile], the EC50 was under 10 nM.

Regarding `NS(=O)(=O)c1ccc(OC[C@H]2C[C@@H]2CC2CCN(c3ncc(Cl)cn3)CC2)cc1` [Ex 112, 4-[((1S,2S)-2-{[1-(5-chloropyrimidin-2-yl)piperidin-4-yl]methyl}cyclopropyl)methoxy]benzenesulfonamide], the concentration for a half-maximal effect (EC50) lay in the range of 50 to 200 nM.

For `Cc1cc(OCC[C@@H]2C[C@@H]2C2CCN(c3ncc(Cl)cn3)CC2)nc(C#N)n1` (racemic) [Ex 52, Rac-cis-4-(2-{2-[1-(5-chloropyrimidin-2-yl)piperidin-4-yl]cyclopropyl}ethoxy)-6-methylpyrimidine-2-carbonitrile], the EC50 is under 10 nM.

With `Cc1nnc(-c2ccc(OCCC3CC3C3CCN(c4ncc(Cl)cn4)CC3)cc2F)o1` (single isomer, unassigned) [Ex 83 S, cis-5-chloro-2-[4-(2-{2-[3-fluoro-4-(5-methyl-1,3,4-oxadiazol-2-yl)phenoxy]ethyl}cyclopropyl)piperidin-1-yl]pyrimidine], the half-maximal effective concentration (EC50) was under 10 nM.

Take `Clc1cnc(N2CCC([C@@H]3C[C@@H]3CCOc3ccncc3)CC2)nc1` (racemic) [Ex 55, Rac-cis-5-chloro-2-(4-{2-[2-(pyridin-4-yloxy)ethyl]cyclopropyl}piperidin-1-yl)pyrimidine]: the EC50 fell in the range of 10 to 50 nM.

`Fc1cnc(N2CCC(C3CC3CCOc3ccc(-n4ccnn4)cc3)CC2)nc1` (single isomer, unassigned) [Ex 83bS, cis-5-fluoro-2-[4-(2-{2-[4-(1H-1,2,3-triazol-1-yl)phenoxy]ethyl}cyclopropyl)piperidin-1-yl]pyrimidine]: the EC50 is under 10 nM.

For `N#Cc1ccc(OCC2CC2CC2CCN(c3ncc(Cl)cn3)CC2)c(F)c1` (racemic) [Ex 115, rac-trans-4-[((1S,2S)-2-{[1-(5-chloropyrimidin-2-yl)piperidin-4-yl)methyl}cyclopropyl)methoxy]-3-fluorobenzonitrile], the concentration giving a half-maximal response (EC50) lay in the range of 10 to 50 nM.

On to `Clc1cnc(N2CCC(C3CC3CCOc3ccc(-n4ccnn4)cc3)CC2)nc1` (racemic) [Ex 27, rac cis-5-chloro-2-[4-(2-{2-[4-(1H-1,2,3-triazol-1-yl)phenoxy]ethyl}cyclopropyl)piperidin-1-yl]pyrimidine], for which the 50% effective concentration (EC50) was under 10 nM.

Take `Cc1nnc(-c2ccc(OC[C@@H]3C[C@H]3CC3CCN(c4ncc(Cl)cn4)CC3)cc2F)o1` [Ex 109, 5-chloro-2-{4-[((1R,2R)-2-{[3-fluoro-4-(5-methyl-1,3,4-oxadiazol-2-yl)phenoxy]methyl}cyclopropyl)methyl]piperidin-1-yl}pyrimidine]: the half-maximal effective concentration (EC50) fell in the range of 50 to 200 nM.

Take `Clc1cnc(N2CCC(C3CC3CCOc3ccc(-n4cnnc4)cc3)CC2)nc1` (racemic) [Ex 26, rac cis-5-chloro-2-[4-(2-{2-[4-(4H-1,2,4-triazol-4-yl)phenoxy]ethyl}cyclopropyl)piperidin-1-yl]pyrimidine]: the EC50 lay in the range of 10 to 50 nM.

Take `N#Cc1cc(OCC[C@@H]2C[C@@H]2C2CCN(c3ncc(Cl)cn3)CC2)ncn1` (racemic) [Ex 37, Rac-cis-6-(2-{2-[1-(5-chloropyrimidin-2-yl)piperidin-4-yl]cyclopropyl}ethoxy)pyrimidine-4-carbonitrile]: the EC50 was under 10 nM.

For the compound `Fc1cc(OCCC2CC2C2CCN(c3ncc(Cl)cn3)CC2)ccc1-n1cnnn1` (racemic) [Ex 30b, rac cis-5-chloro-2-[4-(2-{2-[3-fluoro-4-(1H-tetrazol-1-yl)phenoxy]ethyl}cyclopropyl)piperidin-1-yl]pyrimidine], the half-maximal effective concentration (EC50) is under 10 nM.

Take `Cc1nnc(-c2ccc(OCCC3CC3C3CCN(c4ncc(Cl)cn4)CC3)cc2F)o1` (racemic) [Ex 32, rac cis-5-chloro-2-[4-(2-{2-[3-fluoro-4-(5-methyl-1,3,4-oxadiazol-2-yl)phenoxy]ethyl}cyclopropyl)piperidin-1-yl]pyrimidine]: the concentration for a half-maximal effect (EC50) is under 10 nM.

These data come from patent US8343990B2, “Substituted cyclopropyl compounds, compositions containing such compounds and methods of treatment” (Merck Sharp & Dohme Corp., priority 2008, dated 2013).
